Values after ≈ are worked out from the molar mass of the structure shown. Like-named read-outs stand apart in the source and are kept apart here. Square brackets hold non-standard residues; d marks the D form. Peptide text beside a SMILES is read from it. Nspe = C[C@H](NCC(=O)O)c1ccccc1; NDecylGly = CCCCCCCCCCNCC(=O)O; Nlys = NCCCCNCC(=O)O
Key:
[1] = tested on: C. auris CBS12373; experiment: Broth microdilution MIC; assay type: cell-based, Candida auris
[2] = tested on: ESKAPEE pathogens (all bacteria); experiment: Geometric mean MIC, therapeutic index and selectivity ratio, all bacteria; assay type: cell-based; details: across the 23 ESKAPEE strains
Protocol: (§1) Briefly, bacteria were suspended in cation-adjusted Mueller–Hinton broth (CAMHB; Oxoid, UK) for antibiotics, or MHB (Oxoid, UK) for peptidomimetics to obtain 5 × 10^5 colony forming unit (CFU) ml^−1. […] Positive controls contained only microbes, and blanks contained only media. Microbial suspensions (100 µl) were added to wells, plates wrapped, and incubated at 37°C, 120 rpm for 16–20 h. After incubation, suspensions were removed, log10 diluted, and plated on Trypticase Soya Agar with phosphatidylcholine and Tween 80 to determine minimum bactericidal or fungicidal concentration (MBC or MFC). […] Geometric mean MIC of the peptoids were calculated to evaluate the broad overview of antimicrobial activity across the pathogens.
(§2) The therapeutic indices (TIs) of the compounds were calculated with the use of following formula: […]

[3] = tested on: Enterobacteriaceae; experiment: Geometric mean MIC, therapeutic index and selectivity ratio, Enterobacteriaceae; assay type: cell-based; details: Enterobacteriaceae (E. coli, K. pneumoniae, and E. aerogenes)
Protocol: as §1, §2

[4] = tested on: A. baumannii ATCC 19 606
Summary of the method: (§3)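 Each strain, at 5 × 10^5 CFU ml^−1, is exposed to compound in Mueller–Hinton-based broth (cation-adjusted for antibiotics) and incubated 16–20 h, 37°C, 120 rpm. Bactericidal concentrations come from plating log10 dilutions of the wells on supplemented agar.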

[5] = tested on: K. pneumoniae JIE2709
Summary of the method: as §3

[6] = tested on: K. pneumoniae JIE2713
Summary of the method: as §3

[7] = tested on: P. aeruginosa AR-1270
Summary of the method: as §3

[8] = tested on: S. aureus 117
Summary of the method: as §3

[9] = tested on: S. aureus 38
Summary of the method: as §3

[10] = tested on: C. auris CBS10913
[11] = tested on: MBL phenotypes of A. baumannii
Protocol: Briefly, bacteria were suspended in cation-adjusted Mueller–Hinton broth (CAMHB; Oxoid, UK) for antibiotics, or MHB (Oxoid, UK) for peptidomimetics to obtain 5 × 10^5 colony forming unit (CFU) ml^−1. […] Positive controls contained only microbes, and blanks contained only media. Microbial suspensions (100 µl) were added to wells, plates wrapped, and incubated at 37°C, 120 rpm for 16–20 h. […] Geometric mean MIC of the peptoids were calculated to evaluate the broad overview of antimicrobial activity across the pathogens.

[12] = tested on: C. auris CBS10913; experiment: Checkerboard microdilution synergy test; assay type: cell-based, Candida auris
Protocol: (§4) The checkerboard microdilution test was performed to determine the fractional inhibitory concentration (FIC) of selected antimicrobials and assess whether the combination had synergistic, antagonistic, or indifferent effects (Anon [2016]) against strains of K. pneumoniae or C. auris. […] Additionally, a strain susceptible to ciprofloxacin was tested to observe the outcome of its combination with TM8 as a representative case from susceptible isolates. […] Then, 10 µl of bacteria (5 × 10^6 CFU ml^−1) or C. auris (2.5 × 10^4 CFU ml^−1) were added to each well, except for the sterility control well. […] The sterility control wells contained only MHB (or RPMI in case of C. auris), and the growth control contained 110 µl of microbial inoculum with no antimicrobials. Subsequently, the plates were incubated for 18- 24 hours at 36 ± 1 °C.
(§5) The FIC for each combination interaction was calculated as follows:
(§6) Then, the summation of FIC (ƩFIC) was calculated for each antimicrobial combination as follows: ƩFIC = FICA + FICB. The results were interpretated as follows: Synergy if ƩFIC ≤ 0.5; Additive if 0.5<ƩFIC ≤ 1; Indifference if […] ≤ 4; and Antagonism if ƩFIC > 4 (Odds [2003]). All antimicrobial synergy experiments were repeated in at least two independent runs.

[13] = tested on: C. auris CBS12373; experiment: Checkerboard microdilution synergy test; assay type: cell-based, Candida auris
Protocol: as §4, §5, §6

[14] = tested on: C. auris CBS12373 biofilm; experiment: Anti-adherence (biofilm prevention), MTT reduction assay; assay type: cell-based, Candida auris
Protocol: Finally, 3-(4,5-Dimethylthiazol 2-yl)-2,5-diphenyltetrazolium bromide (MTT) reduction assay was performed to observe the metabolic activities of C. auris.

[15] = tested on: C. auris CBS12373 biofilm; assay type: cell-based, Candida auris
Protocol: Another set of experiments was conducted under similar conditions similar to those used for MTT assay.

[16] = tested on: C. auris CBS 10913; experiment: microbe, parasite or virus in culture; assay type: cell-based, Candida auris; details: CBS 10913, 48 h
Protocol: Amphotericin B was tested in parallel as a positive control (Ramesh et al. [2023]).

[17] = tested on: Gram-positive bacteria (Enteroc. faecalis and S. aureus)
Summary of the method: as §3

[18] = CBS 12 373, RPMI 1640 with MOPS, 5 × 10^3 CFU ml^−1, ≥90% reduction (≥50% for fluconazole)
[19] = A. baumannii ATCC 19 606, MHB (melimine/Mel4 with 0.2% BSA, 0.01% acetic acid), mean MIC
[20] = K. pneumoniae JIE2709, MHB (melimine/Mel4 with 0.2% BSA, 0.01% acetic acid), mean MIC
[21] = K. pneumoniae JIE2713, MHB (melimine/Mel4 with 0.2% BSA, 0.01% acetic acid), mean MIC
[22] = P. aeruginosa AR-1270, MHB (melimine/Mel4 with 0.2% BSA, 0.01% acetic acid), mean MIC
[23] = CBS 10 913, RPMI 1640 with MOPS, 5 × 10^3 CFU ml^−1, ≥90% reduction (≥50% for fluconazole)

## C[C@@H](c1ccccc1)N(CC(N)=O)C(=O)CN(C(=O)CN(CCCCN)C(=O)CN(C(=O)CN(C(=O)CN(CCCCN)C(=O)CN(C(=O)CN(C(=O)CN(CCCCN)C(=O)CN(C(=O)CN(C(=O)CNCCCCN)[C@@H](C)c1ccccc1)[C@@H](C)c1ccccc1)[C@@H](C)c1ccccc1)[C@@H](C)c1ccccc1)[C@@H](C)c1ccccc1)[C@@H](C)c1ccccc1)[C@@H](C)c1ccccc1 [TM1] (H-[Nlys][Nspe][Nspe][Nlys][Nspe][Nspe][Nlys][Nspe][Nspe][Nlys][Nspe][Nspe]-NH2)
[1]; [18]
  MIC against C. auris: 3.9 mg/L
[1]; CBS12373
  MIC against C. auris: 2.1 µM
[2]
  Geometric mean MIC, all bacteria: 13.0 mg/L
[2]; value in brackets
  Geometric mean MIC, all bacteria: 7.2 µM
[3]
  Geometric mean MICE: 23.7 µg/mL
[4]; [19]
  MIC of peptidomimetics: 3.9 mg/L
[4]; ATCC 19
  MIC of peptidomimetics: 2.1 µM
[5]; [20]
  MIC of peptidomimetics: 15.6 mg/L
[5]; K. pneumoniae JIE2709, value in brackets
  MIC of peptidomimetics: 8.6 µM
[6]; [21]
  MIC of peptidomimetics: 62.5 mg/L
[6]; K. pneumoniae JIE2713, value in brackets
  MIC of peptidomimetics: 34.4 µM
[7]; [22]
  MIC of peptidomimetics: 31.3 mg/L
[7]; P. aeruginosa AR-1270, value in brackets
  MIC of peptidomimetics: 17.2 µM
[8]; 117
  MIC of peptidomimetics: 7.8 mg/L
[9]; 38
  MIC of peptidomimetics: 7.8 mg/L
[10]; [23]
  MIC against C. auris: 15.6 mg/L
[10]; CBS10913
  MIC against C. auris: 8.6 µM
[11]; MBL phenotypes of A. baumannii
  MIC: ≤ 7.8 mg/L

## CCCCCCCCCCNCC(=O)N(CCCCN)CC(=O)N(CC(=O)N(CC(=O)N(CCCCN)CC(=O)N(CC(=O)N(CC(N)=O)[C@@H](C)c1ccccc1)[C@@H](C)c1ccccc1)[C@@H](C)c1ccccc1)[C@@H](C)c1ccccc1 [TM8] (H-[NDecylGly][Nlys][Nspe][Nspe][Nlys][Nspe][Nspe]-NH2)
[1]; [18]
  MIC against C. auris: 3.9 mg/L
[1]; CBS12373
  MIC90: 15.6 mg/L (≈ 14 µM)
  MIC against C. auris: 3.5 µM
[2]
  Geometric mean MIC, all bacteria: 7.3 mg/L
[2]; value in brackets
  Geometric mean MIC, all bacteria: 6.6 µM
[3]
  Geometric mean MICE: 11.0 µg/mL
[12]
  MIC of TM8 (alone, checkerboard): 7.813 mg/L
[12]; TM8 with Fluconazole
  FICTM8: 0.5
  MF of TM8 (modulation factor): 2
  ƩFIC: 0.563
[13]
  MIC of TM8 (alone, checkerboard): 3.9 mg/L
[13]; TM8 with Fluconazole
  FICTM8: 0.5
  MF of TM8 (modulation factor): 2
  ƩFIC: 0.563
[14]
  Biofilm tolerance factor-prevention (BPC/MIC): 8
[14]; 2 h adhesion with agent, 48 h growth, ≥90% reduction
  Anti-adherence (BPC): 125 µg/mL
[15]
  MBEC for mature biofilm: 125 µg/mL
[16]
  MIC in the absence of ergosterol: 7.8 mg/L
  MIC in the presence of exogenous ergosterol: 31.25 mg/L
[4]; [19]
  MIC of peptidomimetics: 3.9 mg/L
[4]; ATCC 19
  MIC of peptidomimetics: 3.5 µM
[17]
  MIC range: 3.9 to 7.8 mg/L
[5]; JIE2709
  MIC of peptidomimetics: 14.0 µM
[5]; [20]
  MIC of peptidomimetics: 15.6 mg/L
[6]; JIE2713
  MIC of peptidomimetics: 14.0 µM
[6]; [21]
  MIC of peptidomimetics: 15.6 mg/L
[7]; AR-1270
  MIC of peptidomimetics: 14.0 µM
[7]; [22]
  MIC of peptidomimetics: 15.6 mg/L
[8]; 117
  MIC of peptidomimetics: 3.5 µM
[8]; S. aureus 117, MHB (melimine/Mel4 with 0.2% BSA, 0.01% acetic acid), mean MIC
  MIC of peptidomimetics: 3.9 mg/L
[9]; 38
  MIC of peptidomimetics: 3.5 µM
[9]; S. aureus 38, MHB (melimine/Mel4 with 0.2% BSA, 0.01% acetic acid), mean MIC
  MIC of peptidomimetics: 3.9 mg/L
[10]; [23]
  MIC against C. auris: 7.8 mg/L
[10]; CBS10913
  MIC against C. auris: 7.0 µM
  MIC at high cell density: 15.6 mg/L (≈ 14 µM)
[11]; MBL phenotypes of
  MIC: ≤ 7.8 mg/L

— PMC11879280, “Antimicrobial activity of peptoids against Metallo-β-lactamase-producing Klebsiella pneumoniae, Acinetobacter baumannii, Pseudomonas aeruginosa, and other WHO priority pathogens, including Candida auris” (Journal of Applied Microbiology, 2025)
